Measurements taken from patent US20240254121A1, “ALKYLAMIDE SUBSTITUTED, ANNULATED IMIDAZOLES AND USE THEREOF AS INSECTICIDES” (Bayer Aktiengesellschaft, priority 2021, published 2024).

Legend:
Assay type in all cases: in vivo
[1] = system: larvae of the banded cucumber beetle (Diabrotica balteata); assay: Diabrotica balteata spray test; details: 168 h, 100 g/ha (=32 μg/well), wheat seeds, after 7 days, read-out: efficacy (seedling growth)
Experimental: Diabrotica Balteata—Spray Test
• Solvent: 78.0 Parts by Weight of Acetone • 1.5 parts by weight of dimethylformamide • Emulsifier: Alkylarylpolyglycol Ether
(§1) To produce a suitable preparation of active compound, 1 part by weight of active compound is mixed with the stated amount of solvent, and the concentrate is diluted with water, containing an emulsifier concentration of 1000 ppm, to the desired concentration. Further test concentrations are prepared by dilution with emulsifier containing water.
Soaked wheat seeds (Triticum aestivum) are placed in a multiple well plate filled with agar and some water and are incubated for 1 day to germinate (5 seeds per well). The germinated wheat seeds are sprayed with a test solution containing the desired concentration of the active ingredient. Afterwards each unit is infected with 10-20 larvae of the banded cucumber beetle (Diabrotica balteata).
After 7 days efficacy in % is determined. 100% means all the seedlings have grown up like in the untreated, uninfected control; 0% means none of the seedlings have grown.

[2] = system: southern root-knot nematode (Meloidogyne incognita); assay: Meloidogyne incognita test; details: 20 ppm, lettuce, after 14 days
Experimental: Meloidogyne Incognita—Test
• Solvent: 125.0 parts by weight of acetone
(§2) To produce a suitable preparation of active compound, 1 part by weight of active compound is mixed with the stated amount of solvent, and the concentrate is diluted with water to the desired concentration.
Vessels are filled with sand, a solution of the active ingredient, a suspension containing eggs and larvae of the southern root-knot nematode (Meloidogyne incognita) and lettuce seeds. The lettuce seeds germinate and the seedlings grow. Galls develop in the roots.
After 14 days the nematicidal effect in percent is determined by the formation of galls. 100% means no galls were found and 0% means the number of galls found on the roots of the treated plants was equal to that in untreated control plants.

[3] = system: larvae of the southern green stink bug (Nezara viridula); assay: Nezara viridula spray test; details: 96 h, barley plants, after 4 days
Experimental: Nezara viridula—Spray Test • Solvent: 78.0 parts by weight of acetone • 1.5 parts by weight of dimethylformamide • Emulsifier: alkylarylpolyglycol ether
as §1
Barley plants (Hordeum vulgare) are sprayed with a test solution containing the desired concentration of the active ingredient and are infested with larvae of the southern green stink bug (Nezara viridula).
After 4 days mortality in % is determined. 100% means all the stink bugs have been killed; 0% means none of the stink bugs have been killed.

[4] = system: fall armyworm larvae (Spodoptera frugiperda); assay: Spodoptera frugiperda spray test; details: 168 h, maize leaf sections, after 7 days
Experimental: Spodoptera frugiperda—Spray Test • Solvent: 78.0 parts by weight acetone • 1.5 parts by weight dimethylformamide • Emulsifier: alkylarylpolyglycol ether
as §1, with “solvents” for “solvent,”, “and” for “and the concentrate”
Maize (Zea mays) leaf sections are sprayed with a preparation of the active ingredient of the desired concentration. Once dry, the leaf sections are infested with fall armyworm larvae (Spodoptera frugiperda).
After 7 days mortality in % is determined. 100% means all caterpillars have been killed and 0% means none of the caterpillars have been killed.

[5] = system: cotton aphid (Aphis gossypii); assay: Aphis gossypii oral test; details: 120 h, after 5 days
Experimental: Aphis gossypii—Oral Test • Solvent: 100 Parts by Weight Acetone
as §2
(§3) 50 μL compound solution is filled in microtiter plates and 150 μL IPL41 insect medium (33%+15% sugar) is added to obtain a total volume of 200 μL per well. Afterwards the plates are sealed with parafilm through which a mixed population of the cotton aphid (Aphis gossypii) can suck on the compound preparation.
(§4) After 5 days mortality in % is determined. 100% means all aphids have been killed and 0% means none of the aphids have been killed.

[6] = system: green peach aphid (Myzus persicae); assay: Myzus persicae oral test; details: 120 h, after 5 days
Experimental: Myzus persicae—Oral Test • Solvent: 100 parts by weight acetone
as §2
as §3, with “green peach” for “cotton”, “(Myzus persicae)” for “(Aphis gossypii)”
as §4

[7] = system: adult mosquitoes Aedes aegypti strain MONHEIM; assay: Aedes aegypti test (AEDSAE surface treatment & contact assay); details: 24 hours after contact, read-out: efficacy (mortality); for mortality at 4 mg/m2: surface concentration 4 mg/m^2, 30 minutes exposure; for mortality at 20 mg/m2: surface concentration 20 mg/m^2, 30 minutes exposure
Experimental: Aedes aegypti Test (AEDSAE Surface Treatment & Contact Assay) • Solvent: Aceton+2000 ppm rapeseed oil methyl ester (RME)
(§5) In order to produce a sufficient, active ingredient containing solution it is necessary to solve the test compound in the solvent-mix (acetone at 2 mg/ml/RME 2000 ppm). This solution is pipetted onto a glazed tile and after evaporation of the acetone, adult mosquitoes of the species Aedes aegypti strain MONHEIM are placed onto the dried surface. The exposure time is 30 minutes. Mortality in percent (%) is determined 24 hours after contact of the insects to the treated surface. 100% mortality means that all tested insects are dead, whereas 0% means that no insect died.

[8] = system: cattle tick larvae (Rhipicephalus microplus); assay: Rhipicephalus (Boophilus) microplus in-vitro contact test, larval cattle tick (strain Parkhurst, resistant against synthetic pyrethroids); details: after 48 hours, read-out: efficacy (larvae dead or moribund); for pest or weed control at 1 µg/cm2, 100 g/ha: 1 μg/cm^2 (=100 g/ha); for pest or weed control at 5 µg/cm2, 500 g/ha: 5 μg/cm^2 (=500 g/ha)
Experimental: Rhipicephalus (Boophilus) Microplus—In-Vitro Contact Tests Larval Cattle Tick (Strain Parkhurst, Resistant Against Synthetic Pyrethroids)
9 mg compound is solved in 1 mL acetone and diluted with acetone to the desired concentration. 250 μL of the test solution is filled in 25 mL glass test tubes and homogeneously distributed on the inner walls by rotation and tilting on a shaking device (2 h at 30 rpm). With a compound concentration of 900 ppm, an inner surface of 44.7 cm^2 and a homogeneous distribution, a dose of 5 μg/cm^2 is achieved.
After the solvent has evaporated, each test tube is filled with 20-50 cattle tick larvae (Rhipicephalus microplus), closed with a perforated lid and incubated in a horizontal position at 85% relative humidity and 27° C. in an incubator. After 48 hours efficacy is determined. The larvae are patted on the ground of the tubes and negative geotactic behavior is recorded.
An efficacy of 100% means all larvae are dead or moribund; 0% means no larvae are dead or moribund.

[9] = system: adult engorged female ticks (Rhipicephalus microplus); assay: Rhipicephalus (Boophilus) microplus injection test; details: 4 μg/tick, egg deposition after 7 days
Experimental: Rhipicephalus (Boophilus) Microplus—Injection Test
• Solvent: Dimethyl Sulfoxide
To produce a suitable preparation of active compound, 10 mg of active compound are dissolved in 0.5 mL solvent, and the concentrate is diluted with solvent to the desired concentration.
Five adult engorged female ticks (Rhipicephalus microplus) are injected with 1 μL compound solution into the abdomen. The ticks are transferred into replica plates and incubated in a climate chamber.
After 7 days egg deposition of fertile eggs is monitored. Eggs where fertility is not visible are stored in a climate chamber till hatching after about 42 days. An efficacy of 100% means all eggs are infertile; 0% means all eggs are fertile.

[10] = system: green peach aphid (Myzus persicae); assay: Myzus persicae spray test; details: foliar, 120 h, 100 g/ha, Chinese cabbage leaf disks, after 5 days
Experimental: Myzus persicae—Spray Test • Solvent: 78.0 parts by weight acetone • 1.5 parts by weight dimethylformamide • Emulsifier: alkylarylpolyglycol ether
as §1, with “solvents” for “solvent,”, “and” for “and the concentrate”
Chinese cabbage (Brassica pekinensis) leaf disks infected with all instars of the green peach aphid (Myzus persicae), are sprayed with a preparation of the active ingredient of the desired concentration.
as §4

[11] = system: brown planthopper (Nilaparvata lugens); assay: Nilaparvata lugens spray test; details: 96 h, rice plants, after 4 days
Experimental: Nilaparvata lugens—Spray Test • Solvent: 78.0 parts by weight of acetone • 1.5 parts by weight of dimethylformamide • Emulsifier: alkylarylpolyglycol ether
as §1, with “solvents” for “solvent,”, “and” for “and the concentrate”
Rice plants (Oryza sativa) are sprayed with a preparation of the active ingredient of the desired concentration and the plants are infested with the brown planthopper (Nilaparvata lugens).
After 4 days mortality in % is determined. 100% means all planthoppers have been killed and 0% means none of the planthoppers have been killed.

[12] = system: adult mosquitoes Culex quinquefasciatus strain P00; assay: Culex quinquefasciatus test (CULXFA surface treatment & contact assay); details: 24 hours after contact, read-out: efficacy (mortality)
Experimental: Culex quinquefasciatus Test (CULXFA Surface Treatment & Contact Assay) • Solvent: Aceton+2000 ppm rapeseed oil methyl ester (RME)
as §5, with “2,000” for “2000”, “Culex quinquefasciatus” for “Aedes aegypti”, “P00” for “MONHEIM”

[13] = system: adult flies Musca domestica strain WHO-N; assay: Musca domestica test (MUSCDO surface treatment & contact assay); details: 24 hours after contact, read-out: efficacy (mortality); for mortality at 20 mg/m2: surface concentration 20 mg/m^2, 30 minutes exposure
Experimental: Musca domestica Test (MUSCDO Surface Treatment & Contact Assay) • Solvent: Aceton+2000 ppm rapeseed oil methyl ester (RME)
as §5, with “flies” for “mosquitoes”, “Musca domestica” for “Aedes aegypti”, “WHO-N” for “MONHEIM”

[14] = system: adult unfed cat fleas (Ctenocephalides felis); assay: Ctenocephalides felis oral test; details: 48 h, 100 ppm in citrated cattle blood, after 2 days
Experimental: Ctenocephalides felis—Oral Test • Solvent: Dimethyl Sulfoxide
To produce a suitable preparation of active compound, 10 mg of active compound are dissolved in 0.5 mL solvent, and the concentrate is diluted with citrated cattle blood to the desired concentration.
Approximately 20 adult unfed cat fleas (Ctenocephalides felis) are placed in a flea chamber whose top and bottom is covered with gauze. A chamber whose bottom is sealed with parafilm, is filled with the blood-compound solution and placed on top of the flea chamber, so that the fleas can suck the blood. The blood chamber is heated to 37° C. whereas the flea chamber is kept at room temperature.
After 2 days mortality in % is determined. 100% means all the fleas have been killed; 0% means none of the fleas have been killed.

[15] = surface concentration 4 mg/m^2, 30 minutes exposure

Compound | pest or weed control at 32 µg/disc, 100 g/ha [1] | nematicidal effect (formation of galls) [2] | mortality at 500 g/ha [3] | mortality at 100 g/ha [4] | mortality at 100 ppm [5] | mortality at 20 ppm [6] | mortality at 4 mg/m2 [7] | pest or weed control at 1 µg/cm2, 100 g/ha [8] | pest or weed control at 5 µg/cm2, 500 g/ha [8] | efficacy (infertile eggs) [9] | mortality at 100 g/ha [10] | mortality at 500 g/ha [11] | mortality at 20 mg/m2 [7] | mortality at 4 mg/m2 [12, 15] | mortality at 20 mg/m2 ([12]; surface concentration 20 mg/m^2, 30 minutes exposure) | mortality at 4 mg/m2 [13, 15] | mortality at 20 mg/m2 [13] | mortality at 100 ppm [14]
C[C@H](NC(=O)c1cc(OC(F)(F)F)cc(S(C)(=O)=O)c1)c1nc2cc(F)cnc2n1-c1ccc(C#N)cn1 [Example I-38] | 100% | 90% | 100% | 100% |  |  |  |  |  |  |  |  |  |  |  |  |  | 
CNC(=O)c1ccc(-n2c(C(C)NC(=O)c3cc(C(F)(F)F)cc(C(F)(F)F)c3)nc3cccnc32)nc1 (stereo not drawn) [Example I-25] |  | 90% | 100% |  |  |  |  |  |  |  |  |  |  |  |  |  |  | 
CNC(=O)c1ccc(-n2c(C(C)NC(=O)c3cc(OC(F)(F)F)cc(OC(F)(F)F)c3)nc3cccnc32)nc1 (stereo not drawn) [Example I-27] |  | 90% |  |  | 100% | 100% | 80 to 100% |  |  |  |  |  |  |  |  |  |  | 
C[C@H](NC(=O)c1cc(OC(F)(F)F)cc(C2(C#N)CC2)c1)c1nc2cccnc2n1-c1ccc(C#N)cn1 [Example I-3] | 100% |  | 100% | 100% |  |  | 80 to 100% | 90% | 90% | 100% | 100% | 90% | 80 to 100% | 80 to 100% | 80 to 100% | 80 to 100% | 80 to 100% | 
C[C@H](NC(=O)c1cc(OC(F)(F)F)cc(C(C)(C)C#N)c1)c1nc2cccnc2n1-c1ccc(C#N)cn1 [Example I-1] | 100% |  |  | 100% |  |  |  | 90% | 80% | 100% |  | 100% | 80 to 100% |  |  |  | 80 to 100% | 100%
